Results reported in ChEMBL document CHEMBL1201861, “Genomics of Drug Sensitity in Cancer screening data, Wellcome Trust Sanger Institute”.

Assays:
Test in all cases: cells
[1] = test system: COLO-800; format: functional, cell-based, Homo sapiens; conditions: Homo sapiens, COLO-800;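 note: growth inhibition of COLO-800 cells, read out with a cell viability assay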
Description: SANGER: Inhibition of human COLO-800 cell growth in a cell viability assay.

[2] = test system: COLO-829; format: functional, cell-based, Homo sapiens; conditions: Homo sapiens, COLO-829
Description: SANGER: Inhibition of human COLO-829 cell growth in a cell viability assay.

[3] = test system: Ca9-22; format: functional, cell-based, Homo sapiens; conditions: Homo sapiens, Ca9-22;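 note: growth inhibition of Ca9-22 cells, read out with a cell viability assay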
Description: SANGER: Inhibition of human Ca9-22 cell growth in a cell viability assay.

[4] = test system: Capan-2; format: functional, cell-based, Homo sapiens; conditions: Homo sapiens, Capan-2;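 note: Capan-2 cell growth inhibition, read out with a viability assay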
Description: SANGER: Inhibition of human Capan-2 cell growth in a cell viability assay.

[5] = test system: DJM-1; format: functional, cell-based, Homo sapiens; conditions: Homo sapiens, DJM-1;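 note: growth inhibition of human DJM-1 cells, read out by a cell viability assay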
Description: SANGER: Inhibition of human DJM-1 cell growth in a cell viability assay.

[6] = test system: EFM-19; format: functional, cell-based, Homo sapiens; conditions: Homo sapiens, EFM-19;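 note: growth inhibition of human EFM-19 cells, measured in a cell viability assay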
Description: SANGER: Inhibition of human EFM-19 cell growth in a cell viability assay.

[7] = test system: ES6; format: functional, cell-based, Homo sapiens; conditions: Homo sapiens, ES6;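 note: growth inhibition of human ES6 cells, read out with a cell viability assay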
Description: SANGER: Inhibition of human ES6 cell growth in a cell viability assay.

[8] = test system: GAMG; format: functional, cell-based, Homo sapiens; conditions: Homo sapiens, GAMG;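 note: cell growth inhibition measured by a viability assay in the GAMG human cell line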
Description: SANGER: Inhibition of human GAMG cell growth in a cell viability assay.

[9] = test system: HCC1419; format: functional, cell-based, Homo sapiens; conditions: Homo sapiens, HCC1419;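 note: growth inhibition of human HCC1419 cells, read out as cell viability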
Description: SANGER: Inhibition of human HCC1419 cell growth in a cell viability assay.

[10] = test system: HCE-T; format: functional, cell-based, Homo sapiens; conditions: Homo sapiens, HCE-T;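 note: cell viability assay read-out, reporting inhibition of HCE-T cell growth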
Description: SANGER: Inhibition of human HCE-T cell growth in a cell viability assay.

[11] = test system: KURAMOCHI; format: functional, cell-based; conditions: Homo sapiens;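 note: growth inhibition of KURAMOCHI cells, read out with a cell viability assay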
Description: SANGER: Inhibition of human KURAMOCHI cell growth in a cell viability assay.

[12] = test system: KYSE-520 cell line; format: functional, cell-based, Homo sapiens; conditions: Homo sapiens, KYSE-520;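 note: growth inhibition of human KYSE-520 cells, read out with a viability assay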
Description: SANGER: Inhibition of human KYSE-520 cell growth in a cell viability assay.

[13] = test system: LB2241-RCC; format: functional, cell-based, Homo sapiens; conditions: Homo sapiens, LB2241-RCC;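 note: cell viability assay measuring how strongly the cultured human renal carcinoma line is prevented from growing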
Description: SANGER: Inhibition of human LB2241-RCC cell growth in a cell viability assay.

[14] = test system: LN-405; format: functional, cell-based, Homo sapiens; conditions: Homo sapiens, LN-405
Description: SANGER: Inhibition of human LN-405 cell growth in a cell viability assay.

[15] = test system: LNCaP-Clone-FGC; format: functional, cell-based, Homo sapiens; conditions: Homo sapiens, LNCaP-Clone-FGC
Description: SANGER: Inhibition of human LNCaP-Clone-FGC cell growth in a cell viability assay.

[16] = test system: LS-123; format: functional, cell-based, Homo sapiens; conditions: Homo sapiens, LS-123
Description: SANGER: Inhibition of human LS-123 cell growth in a cell viability assay.

[17] = test system: M059J; format: functional, cell-based, Homo sapiens; conditions: Homo sapiens, M059J;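 note: growth inhibition of M059J cells, read out with a cell viability assay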
Description: SANGER: Inhibition of human M059J cell growth in a cell viability assay.

[18] = test system: MDA-MB-157; format: functional, cell-based, Homo sapiens; conditions: Homo sapiens, MDA-MB-157
Description: SANGER: Inhibition of human MDA-MB-157 cell growth in a cell viability assay.

[19] = test system: MIA PaCa-2; format: functional, cell-based, Homo sapiens; conditions: Homo sapiens, MIA PaCa-2;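 note: growth inhibition of MIA PaCa-2 cells, read out with a cell viability assay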
Description: SANGER: Inhibition of human MIA-PaCa-2 cell growth in a cell viability assay.

[20] = test system: MeWo; format: functional, cell-based, Homo sapiens; conditions: Homo sapiens, MeWo;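 note: growth inhibition of MeWo cells, determined by a cell viability readout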
Description: SANGER: Inhibition of human Mewo cell growth in a cell viability assay.

[21] = test system: NCI-H1437; format: functional, cell-based, Homo sapiens; conditions: Homo sapiens, NCI-H1437;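 note: growth inhibition of human NCI-H1437 cells, read out by a cell viability assay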
Description: SANGER: Inhibition of human NCI-H1437 cell growth in a cell viability assay.

[22] = test system: NCI-H1793; format: functional, cell-based, Homo sapiens; conditions: Homo sapiens, NCI-H1793;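 note: cell growth inhibition, read out by a cell viability assay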
Description: SANGER: Inhibition of human NCI-H1793 cell growth in a cell viability assay.

[23] = test system: NCI-H226; format: functional, cell-based, Homo sapiens; conditions: Homo sapiens, NCI-H226;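 note: cell viability read-out used to gauge growth inhibition of the cells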
Description: SANGER: Inhibition of human NCI-H226 cell growth in a cell viability assay.

[24] = test system: NCI-H2452; format: functional, cell-based, Homo sapiens; conditions: Homo sapiens, NCI-H2452;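 note: growth inhibition of NCI-H2452 cells, read out with a cell viability assay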
Description: SANGER: Inhibition of human NCI-H2452 cell growth in a cell viability assay.

[25] = test system: NCI-H510A; format: functional, cell-based; conditions: Homo sapiens;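 note: growth inhibition of NCI-H510A cells, read out with a cell viability assay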
Description: SANGER: Inhibition of human NCI-H510A cell growth in a cell viability assay.

[26] = test system: OCUB-M; format: functional, cell-based, Homo sapiens; conditions: Homo sapiens, OCUB-M;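 note: growth inhibition of the cancer cell line, read out through a cell viability assay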
Description: SANGER: Inhibition of human OCUB-M cell growth in a cell viability assay.

[27] = test system: OE33; format: functional, cell-based, Homo sapiens; conditions: Homo sapiens, OE33;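 note: growth inhibition of human OE33 cells, measured by a cell viability assay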
Description: SANGER: Inhibition of human OE33 cell growth in a cell viability assay.

[28] = test system: OS-RC-2; format: functional, cell-based, Homo sapiens; conditions: Homo sapiens, OS-RC-2;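 note: growth inhibition of human OS-RC-2 cells, measured by a cell viability assay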
Description: SANGER: Inhibition of human OS-RC-2 cell growth in a cell viability assay.

[29] = test system: OVCAR-3; format: functional, cell-based, Homo sapiens; conditions: Homo sapiens, OVCAR-3;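 note: growth inhibition of human OVCAR-3 cells, determined by a cell viability assay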
Description: SANGER: Inhibition of human OVCAR-3 cell growth in a cell viability assay.

[30] = test system: PANC-08-13; format: functional, cell-based, Homo sapiens; conditions: Homo sapiens, PANC-08-13;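 note: cell growth inhibition, measured with a cell viability assay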
Description: SANGER: Inhibition of human PANC-08-13 cell growth in a cell viability assay.

[31] = test system: Panc1005; format: functional, cell-based, Homo sapiens; conditions: Homo sapiens, Panc1005;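 note: growth inhibition of human PANC-10-05 cells, measured by a cell viability assay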
Description: SANGER: Inhibition of human PANC-10-05 cell growth in a cell viability assay.

[32] = test system: PC-3; format: functional, cell-based, Homo sapiens; conditions: Homo sapiens, PC-3;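 note: cell viability assay measuring growth inhibition of PC-3 cells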
Description: SANGER: Inhibition of human PC-3 cell growth in a cell viability assay.

[33] = test system: RD; format: functional, cell-based, Homo sapiens; conditions: Homo sapiens, RD
Description: SANGER: Inhibition of human RD cell growth in a cell viability assay.

[34] = test system: RO82-W-1; format: functional, cell-based, Homo sapiens; conditions: Homo sapiens, RO82-W-1;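 note: growth inhibition of human RO82-W-1 cells, measured with a cell viability assay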
Description: SANGER: Inhibition of human RO82-W-1 cell growth in a cell viability assay.

[35] = test system: SF-295; format: functional, cell-based, Homo sapiens; conditions: Homo sapiens, SF-295; read-out: IC50;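 note: growth inhibition of SF-295 cells, read out with a cell viability assay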
Description: SANGER: Inhibition of human SF295 cell growth in a cell viability assay.

[36] = test system: SJSA-1; format: functional, cell-based, Homo sapiens; conditions: Homo sapiens, SJSA-1;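 note: growth inhibition of human SJSA-1 cells, read out through a cell viability measurement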
Description: SANGER: Inhibition of human SJSA-1 cell growth in a cell viability assay.

[37] = test system: SK-N-DZ; format: functional, cell-based, Homo sapiens; conditions: Homo sapiens, SK-N-DZ;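 note: growth inhibition of the cancer cell line, read out through a viability assay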
Description: SANGER: Inhibition of human SK-N-DZ cell growth in a cell viability assay.

[38] = test system: SNB-75; format: functional, cell-based, Homo sapiens; conditions: Homo sapiens, SNB-75;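 note: cell viability assay measuring growth inhibition of human SNB-75 cells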
Description: SANGER: Inhibition of human SNB75 cell growth in a cell viability assay.

[39] = test system: SW837; format: functional, cell-based, Homo sapiens; conditions: Homo sapiens, SW837;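 note: growth inhibition of SW837 cells, determined with a cell viability assay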
Description: SANGER: Inhibition of human SW837 cell growth in a cell viability assay.

[40] = test system: TE-1; format: functional, cell-based, Homo sapiens; conditions: Homo sapiens, TE-1;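 note: growth inhibition of the human TE-1 cell line, read out with a cell viability assay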
Description: SANGER: Inhibition of human TE-1 cell growth in a cell viability assay.

[41] = test system: BB65-RCC; format: functional, cell-based, Homo sapiens; conditions: Homo sapiens, BB65-RCC;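 note: growth inhibition of the cell line, measured with a cell viability assay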
Description: SANGER: Inhibition of human BB65-RCC cell growth in a cell viability assay.

[42] = test system: C2BBe1; format: functional, cell-based, Homo sapiens; conditions: Homo sapiens, C2BBe1;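 note: growth inhibition of C2BBe1 cells, read out through a viability assay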
Description: SANGER: Inhibition of human C2BBe1 cell growth in a cell viability assay.

[43] = test system: C32; format: functional, cell-based, Homo sapiens; conditions: Homo sapiens, C32;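 note: cell viability assay, with IC50 reflecting inhibition of C32 cell growth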
Description: SANGER: Inhibition of human C32 cell growth in a cell viability assay.

[44] = test system: CAL-39; format: functional, cell-based, Homo sapiens; conditions: Homo sapiens, CAL-39;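 note: cell viability assay measuring growth inhibition of CAL-39 cells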
Description: SANGER: Inhibition of human CAL-39 cell growth in a cell viability assay.

[45] = test system: TE-8; format: functional, cell-based, Homo sapiens; conditions: Homo sapiens, TE-8;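 note: growth inhibition of TE-8 cells, measured with a cell viability readout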
Description: SANGER: Inhibition of human TE-8 cell growth in a cell viability assay.

[46] = test system: U2OS; format: functional, cell-based, Homo sapiens, U-2-OS; conditions: Homo sapiens, U2OS;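 note: growth inhibition of human U-2-OS cells, determined with a cell viability assay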
Description: SANGER: Inhibition of human U-2-OS cell growth in a cell viability assay.

[47] = test system: UACC-62; format: functional, cell-based, Homo sapiens; conditions: Homo sapiens, UACC-62;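 note: growth inhibition of human UACC-62 cells, read out by a cell viability assay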
Description: SANGER: Inhibition of human UACC-62 cell growth in a cell viability assay.

[48] = test system: COLO-678; format: functional, cell-based, Homo sapiens; conditions: Homo sapiens, COLO-678
Description: SANGER: Inhibition of human COLO-678 cell growth in a cell viability assay.

SMILES: CN(Cc1cnc2nc(N)nc(N)c2n1)c1ccc(C(=O)N[C@@H](CCC(=O)O)C(=O)O)cc1 [METHOTREXATE]
- IC50 [1]: 0.124 µM
- IC50 [2]: > 0.2 µM
- IC50 [3]: > 0.2 µM
- IC50 [4]: > 0.2 µM
- IC50 [5]: > 0.2 µM
- IC50 [6]: > 0.2 µM
- IC50 [7]: > 0.2 µM
- IC50 [8]: > 0.2 µM
- IC50 [9]: > 0.2 µM
- IC50 [10]: > 0.2 µM
- IC50 [11]: > 0.2 µM
- IC50 [12]: > 0.2 µM
- IC50 [13]: > 0.2 µM
- IC50 [14]: > 0.2 µM
- IC50 [15]: > 0.2 µM
- IC50 [16]: > 0.2 µM
- IC50 [17]: > 0.2 µM
- IC50 [18]: > 0.2 µM
- IC50 [19]: > 0.2 µM
- IC50 [20]: > 0.2 µM
- IC50 [21]: > 0.2 µM
- IC50 [22]: > 0.2 µM
- IC50 [23]: > 0.2 µM
- IC50 [24]: > 0.2 µM
- IC50 [25]: > 0.2 µM
- IC50 [26]: > 0.2 µM
- IC50 [27]: > 0.2 µM
- IC50 [28]: > 0.2 µM
- IC50 [29]: > 0.2 µM
- IC50 [30]: > 0.2 µM
- IC50 [31]: > 0.2 µM
- IC50 [32]: > 0.2 µM
- IC50 [33]: > 0.2 µM
- IC50 [34]: > 0.2 µM
- IC50 [35]: > 0.2 µM
- IC50 [36]: > 0.2 µM
- IC50 [37]: > 0.2 µM
- IC50 [38]: > 0.2 µM
- IC50 [39]: > 0.2 µM
- IC50 [40]: > 0.2 µM
- IC50 [41]: > 0.2 µM
- IC50 [42]: > 0.2 µM
- IC50 [43]: > 0.2 µM
- IC50 [44]: > 0.2 µM
- IC50 [45]: > 0.2 µM
- IC50 [46]: 0.182 µM
- IC50 [47]: > 0.2 µM
- IC50 [48]: > 0.2 µM

SMILES: Cn1cc(C2=C(c3ccc(Cl)cc3Cl)C(=O)NC2=O)c2ccccc21 [SB-216763]
- IC50 [1]: > 10 µM
- IC50 [2]: > 10 µM
- IC50 [3]: > 10 µM
- IC50 [4]: > 10 µM
- IC50 [5]: > 10 µM
- IC50 [6]: > 10 µM
- IC50 [7]: > 10 µM
- IC50 [8]: 6.65 µM
- IC50 [9]: > 10 µM
- IC50 [10]: > 10 µM
- IC50 [11]: > 10 µM
- IC50 [12]: > 10 µM
- IC50 [13]: 6.43 µM
- IC50 [14]: > 10 µM
- IC50 [15]: > 10 µM
- IC50 [16]: > 10 µM
- IC50 [17]: > 10 µM
- IC50 [18]: > 10 µM
- IC50 [19]: > 10 µM
- IC50 [20]: > 10 µM
- IC50 [21]: > 10 µM
- IC50 [22]: > 10 µM
- IC50 [23]: > 10 µM
- IC50 [24]: > 10 µM
- IC50 [25]: > 10 µM
- IC50 [26]: > 10 µM
- IC50 [27]: > 10 µM
- IC50 [28]: > 10 µM
- IC50 [29]: > 10 µM
- IC50 [30]: > 10 µM
- IC50 [31]: > 10 µM
- IC50 [32]: > 10 µM
- IC50 [33]: > 10 µM
- IC50 [34]: > 10 µM
- IC50 [35]: > 10 µM
- IC50 [36]: > 10 µM
- IC50 [37]: > 10 µM
- IC50 [38]: > 10 µM
- IC50 [39]: > 10 µM
- IC50 [40]: > 10 µM
- IC50 [41]: > 10 µM
- IC50 [42]: > 10 µM
- IC50 [43]: > 10 µM
- IC50 [44]: > 10 µM
- IC50 [45]: > 10 µM
- IC50 [46]: > 10 µM
- IC50 [47]: > 10 µM
- IC50 [48]: > 10 µM
